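A five-concentration, 48-hour dose response in 96-well plates underlies each endpoint, interpolated linearly between surrounding concentrations. Abbreviation: GI50, concentration required for 50% inhibition of growth.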 Calls of active or inactive are those of the source. No stated cut-off is given here; in the data, active = GI50 up to about 1.1 µM and inactive = higher. Where only a bound is given, the exact number is not on record here.

Test systems include A498; A549; EKVX; HCT-116; HCT-15; HT-29; IGROV-1; MOLT-4; Malme-3M; NCI-H226; NCI-H23; NCI-H460; OVCAR-4; OVCAR-8; SF-268; SK-MEL-28; SK-OV-3; UACC-257.
What all share (experiment): NCI tumour cell line growth inhibition, 48 h

`O=CN1CCN(C=S)CC1`: the GI50 with A498 was > 100 µM (inactive); in the experiment on A549, > 100 µM (inactive); in the experiment with EKVX, > 100 µM (inactive); with HCT-116, > 100 µM (inactive); in the experiment on HCT-15, above 100 µM; in the experiment on HT-29 it was > 100 µM (inactive). Moreover, the GI50 in the experiment with IGROV-1, in the experiment with MOLT-4, with Malme-3M, in the experiment with NCI-H226, with NCI-H23 and in the experiment on NCI-H460 was > 100 µM (inactive) in each case. Further, the GI50 with OVCAR-4, in the experiment with OVCAR-8, in the experiment on SF-268, with SK-MEL-28, in the experiment with SK-OV-3 and with UACC-257 was > 100 µM (inactive) throughout.
On to `Cc1ccccc1C1CC(c2ccccc2)=NO1` (centres undefined), for which the GI50 in the experiment with A498 was > 100 µM (inactive); in the experiment with A549, > 100 µM (inactive); in the experiment on EKVX, > 100 µM (inactive); in the experiment on HCT-116, > 100 µM (inactive); in the experiment on HCT-15, above 100 µM; in the experiment with HT-29 it was > 100 µM (inactive). Moreover, the GI50 in the experiment on IGROV-1, in the experiment on MOLT-4, in the experiment with Malme-3M, in the experiment on NCI-H226, in the experiment with NCI-H23 and in the experiment on NCI-H460 was > 100 µM (inactive) in each case. The GI50 in the experiment with OVCAR-4, in the experiment on OVCAR-8, in the experiment on SF-268, in the experiment with SK-MEL-28, in the experiment with SK-OV-3 and in the experiment with UACC-257 was > 100 µM (inactive) throughout.
`CN(CCCN1C(=O)c2cccc3cc([N+](=O)[O-])cc(c23)C1=O)CCN(C)CCCN1C(=O)c2cccc3cc([N+](=O)[O-])cc(c23)C1=O`: the GI50 was > 39.3 µM (inactive) with A498; 19.2 µM (inactive) in the experiment with A549; > 39.3 µM (inactive) in the experiment on EKVX; 11.7 µM (inactive) in the experiment with HCT-116; 32.6 µM in the experiment on HCT-15; 7.67 µM (inactive) in the experiment on HT-29. In addition, the GI50 in the experiment on IGROV-1 was 16 µM (inactive); in the experiment with MOLT-4 it was 1.51 µM (inactive); with Malme-3M, 25.9 µM (inactive); in the experiment with NCI-H226, > 39.3 µM (inactive); with NCI-H23, > 39.3 µM (inactive); in the experiment on NCI-H460, 6.73 µM (inactive). Besides, the GI50 in the experiment with OVCAR-4 was 27.4 µM (inactive); in the experiment with OVCAR-8, 2.74 µM (inactive); in the experiment on SF-268, 29 µM (inactive); with SK-MEL-28 it was 25.5 µM (inactive); with SK-OV-3, > 39.3 µM (inactive); with UACC-257, > 39.3 µM (inactive).
`COc1cc(-c2n[nH]cc2CCCC(=O)Nc2ccccc2[N+](=O)[O-])ccc1O`: the GI50 with A498 was > 100 µM (inactive); in the experiment with A549, 73.8 µM (inactive); in the experiment with EKVX, 64.9 µM (inactive); in the experiment on HCT-116 it was 45.3 µM (inactive); with HCT-15 it was 64.6 µM; with HT-29 it was > 100 µM (inactive). Besides, the GI50 in the experiment with IGROV-1 is > 100 µM (inactive); in the experiment with MOLT-4, 42.2 µM (inactive); in the experiment on Malme-3M, 19.2 µM (inactive); with NCI-H226, > 100 µM (inactive); with NCI-H23 it was > 100 µM (inactive); in the experiment with OVCAR-4, > 100 µM (inactive). Moreover, the GI50 in the experiment with OVCAR-8, in the experiment on SF-268, in the experiment with SK-MEL-28, in the experiment with SK-OV-3 and in the experiment on UACC-257 was > 100 µM (inactive) throughout.
In the case of `CCCc1n[nH]c(CCC(=O)N(Cc2ccccc2)Cc2ccccc2)c1CC`, the GI50 in the experiment on A498 was > 100 µM (inactive); with A549, > 100 µM (inactive); with EKVX, > 100 µM (inactive); with HCT-15, above 100 µM; with HT-29 it was > 100 µM (inactive); in the experiment on IGROV-1, > 100 µM (inactive). Further, the GI50 in the experiment with MOLT-4, in the experiment on Malme-3M, in the experiment with NCI-H226, with NCI-H23, with NCI-H460 and in the experiment on OVCAR-4 was > 100 µM (inactive) each time. Moreover, the GI50 in the experiment on OVCAR-8, with SF-268, with SK-MEL-28, in the experiment on SK-OV-3 and with UACC-257 was > 100 µM (inactive) in each case.
As to `CS(=O)(=O)Oc1cccc(/C=N/N=C(\N)NO)c1`, the GI50 is 73.1 µM (inactive) with A498; 21.8 µM (inactive) in the experiment with A549; 34 µM (inactive) in the experiment on EKVX; 32.9 µM (inactive) in the experiment with HCT-116; 35.1 µM in the experiment with HCT-15; 24.8 µM (inactive) in the experiment with HT-29. Also, the GI50 is 35.2 µM (inactive) in the experiment on IGROV-1; 23.1 µM (inactive) in the experiment with Malme-3M; 23.3 µM (inactive) in the experiment with NCI-H226; 27.2 µM (inactive) in the experiment on NCI-H23; 24.8 µM (inactive) in the experiment on NCI-H460; 18 µM (inactive) with OVCAR-4. Moreover, the GI50 with OVCAR-8 is 33.2 µM (inactive); in the experiment on SF-268, 24.2 µM (inactive); with SK-MEL-28 it was > 100 µM (inactive); in the experiment with SK-OV-3 it was 27 µM (inactive); in the experiment on UACC-257 it was 38.8 µM (inactive).
For the compound `CCc1cccc(C)c1NC(=O)CCc1n[nH]c(=S)o1`, the GI50 in the experiment with A498 was > 100 µM (inactive); with EKVX, > 100 µM (inactive); in the experiment on HCT-116, 16.1 µM (inactive); in the experiment with HCT-15, 55.1 µM; in the experiment on HT-29 it was 95.5 µM (inactive); in the experiment with IGROV-1, > 100 µM (inactive). The GI50 with MOLT-4, with Malme-3M, in the experiment on NCI-H226, in the experiment with NCI-H23, in the experiment on NCI-H460 and in the experiment with OVCAR-4 was > 100 µM (inactive) in each case. The GI50 with OVCAR-8, in the experiment on SF-268, with SK-MEL-28, in the experiment on SK-OV-3 and in the experiment with UACC-257 was > 100 µM (inactive) throughout.
As to `O=c1c2ccccc2[nH]c(=S)n1-c1ccc(Br)cc1`, the GI50 in the experiment with A498 was 51.6 µM (inactive); in the experiment with A549, 33.3 µM (inactive); with EKVX, > 100 µM (inactive); in the experiment with HCT-116, 68.4 µM (inactive); in the experiment with HCT-15 it was 71.9 µM; in the experiment on HT-29, 44.9 µM (inactive). The GI50 was 71.4 µM (inactive) with IGROV-1; 76 µM (inactive) in the experiment on MOLT-4; > 100 µM (inactive) with Malme-3M; > 100 µM (inactive) in the experiment with NCI-H226; 51.9 µM (inactive) with NCI-H23; 42.9 µM (inactive) in the experiment with NCI-H460. Further, the GI50 in the experiment with OVCAR-4 is 44.8 µM (inactive); with OVCAR-8, 95.5 µM (inactive); in the experiment with SF-268, 90.8 µM (inactive); in the experiment on SK-MEL-28, > 100 µM (inactive); in the experiment on UACC-257 it was > 100 µM (inactive).
With `O=[N+]([O-])C(=C1c2ccccc2-c2ccccc21)[N+](=O)[O-]`, the GI50 with A498 is 57.3 µM (inactive); with A549 it was 38.5 µM (inactive); with EKVX it was > 100 µM (inactive); with HCT-116, 38 µM (inactive); in the experiment on HCT-15, above 10 µM; with HT-29, 50.6 µM (inactive). Moreover, the GI50 in the experiment with IGROV-1 was 61.5 µM (inactive); in the experiment with MOLT-4, 32.6 µM (inactive); in the experiment on NCI-H226 it was 69.2 µM (inactive); in the experiment on NCI-H23 it was > 10 µM (inactive); in the experiment with NCI-H460 it was 48 µM (inactive); in the experiment with OVCAR-4 it was > 100 µM (inactive). Besides, the GI50 with OVCAR-8 is > 100 µM (inactive); in the experiment on SF-268, 20.9 µM (inactive); in the experiment with SK-MEL-28, > 100 µM (inactive); with UACC-257, 52.8 µM (inactive).
On to `N#CCCN(c1ccc(/C=C2\N=C(c3ccc(Cl)cc3)OC2=O)cc1)S(=O)(=O)c1ccccc1`, for which the GI50 in the experiment on A498 is > 100 µM (inactive); in the experiment with A549, > 100 µM (inactive); with EKVX, > 100 µM (inactive); in the experiment on HCT-116, > 100 µM (inactive); with HCT-15, above 100 µM; in the experiment on HT-29, > 100 µM (inactive). Also, the GI50 with IGROV-1 is > 100 µM (inactive); in the experiment with MOLT-4, > 100 µM (inactive); in the experiment with NCI-H226 it was 96.2 µM (inactive); in the experiment on NCI-H23, > 100 µM (inactive); in the experiment with NCI-H460 it was > 100 µM (inactive); in the experiment on OVCAR-4, > 100 µM (inactive). Moreover, the GI50 in the experiment on OVCAR-8, with SF-268, with SK-MEL-28, in the experiment with SK-OV-3 and with UACC-257 was > 100 µM (inactive) in each case.
Take `Cn1c(=O)oc2cc(C3CCC(=O)N3Cc3csc(-c4ccccc4)n3)ccc21` (centres undefined): the GI50 in the experiment on A549 was > 100 µM (inactive); in the experiment with EKVX, > 100 µM (inactive); with HCT-116, > 100 µM (inactive); in the experiment with HCT-15 it was above 100 µM; in the experiment with HT-29, 79.1 µM (inactive); in the experiment with IGROV-1, > 100 µM (inactive). For the same compound, the GI50 is 58.2 µM (inactive) with MOLT-4; > 100 µM (inactive) in the experiment with Malme-3M; > 100 µM (inactive) in the experiment with NCI-H226; > 100 µM (inactive) with NCI-H23; > 100 µM (inactive) in the experiment with NCI-H460; > 100 µM (inactive) with OVCAR-4. The GI50 in the experiment on OVCAR-8, with SF-268, in the experiment with SK-MEL-28, with SK-OV-3 and in the experiment on UACC-257 was > 100 µM (inactive) in each case.
Turning to `CC(C)CC(CNC(Cc1ccc(Cl)cc1)C(N)=O)NC(=O)C(Cc1c[nH]cn1)NC(=O)CNC(=O)C(NC(=O)C(C)NC(=O)C(Cc1c[nH]c2ccccc12)NC(=O)C(CCC(=O)O)NC(=O)C(N)Cc1ccccc1)C(C)C` (centres undefined), the GI50 was > 133 µM (inactive) in the experiment on A498; > 133 µM (inactive) in the experiment with A549; > 133 µM (inactive) in the experiment with EKVX; > 133 µM (inactive) in the experiment with HCT-116; above 133 µM in the experiment with HCT-15; > 133 µM (inactive) in the experiment on HT-29. For the same compound, the GI50 in the experiment on IGROV-1, with MOLT-4, with NCI-H23, in the experiment with NCI-H460, with OVCAR-4 and in the experiment with OVCAR-8 was > 133 µM (inactive) in each case. Moreover, the GI50 in the experiment on SK-MEL-28, with SK-OV-3 and in the experiment on UACC-257 was > 133 µM (inactive) throughout.

(Values after ChEMBL document CHEMBL1201862, “PubChem BioAssay data set” (2004).)
